Assay results as given in BindingDB's records for doi:10.1021/jm701519h (Cns Biological Research, 2008).

Biological target: Cannabinoid receptor 2 (Homo sapiens, UniProt P34972)
Sequence (P34972 whole entry): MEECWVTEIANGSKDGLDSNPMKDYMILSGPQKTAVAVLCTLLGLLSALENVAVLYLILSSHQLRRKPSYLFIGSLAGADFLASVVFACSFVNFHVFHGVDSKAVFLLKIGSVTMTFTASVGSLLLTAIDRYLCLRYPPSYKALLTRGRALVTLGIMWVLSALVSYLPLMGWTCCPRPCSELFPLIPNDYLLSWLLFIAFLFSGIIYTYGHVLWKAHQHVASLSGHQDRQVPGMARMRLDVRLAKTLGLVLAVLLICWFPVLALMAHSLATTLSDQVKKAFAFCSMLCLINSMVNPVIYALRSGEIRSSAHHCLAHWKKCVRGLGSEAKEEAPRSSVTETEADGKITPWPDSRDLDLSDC

- Ki: 1820 nM
Compound: O=C1C(CCC(O)c2ccc(F)cc2)C(c2ccc(O)cc2)N1c1ccc(F)cc1 (stereo unspecified) [CAS_44450418]
